Structures are written as SMILES. Several values for one entry are separate records, joined by “and”; a condition that tells them apart may be missing. Identical values can stand only once.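 Exposure lasted 48 hours, with cells grown in 96-well plates and compounds tested at five concentrations. Here, GI50 denotes the concentration required for 50% inhibition of growth. Definition used: TGI = concentration required for complete inhibition of growth.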

This experiment has as its system MDA-MB-468 breast. Briefly: inhibition of tumour cell growth, NCI panel, 48 h.

`CC[n+]1ccc2c(c1)C(=O)c1nccc3c1c-2nc1ccccc13`: the GI50 was 0.462 µM and the TGI is 1.18 µM.

As for `COc1cc2c(c(OC)c1OC)-c1ccc(NCc3ccccc3)c(=O)cc1[C@@H](NC(C)=O)CC2`, the GI50 is 0.319 µM and the TGI was found to be 9.13 µM.

Take `Cn1c(-c2nonc2N)nc2cnccc21`: the GI50 was more than 25 µM and the TGI is more than 25 µM.

With `COc1ccc(CN2CCCC(C(=O)c3ccc(C(F)(F)F)cc3)C2)c(O)c1` (centres undefined), the GI50 is 15.7 µM and the TGI came to 41.6 µM.

As for `C#C[C@]1(O)CC[C@H]2[C@@H]3CC=C4c5sc(-c6cccc(O)c6)nc5CC[C@]4(C)[C@H]3CC[C@@]21C`, the GI50 was 2.56 µM and the TGI turned out to be 6.66 µM.

`CC1=C(CCCOC(=O)NCCCl)C2=C(C)C3(CC3)[C@@](C)(O)C(=O)C2=C1`: the GI50 was 1.83 µM and the TGI is 5.08 µM.

`COc1ccc(CNC(=O)COc2ccc(/C=N/Nc3nc4ccccc4s3)cc2)cc1`: the GI50 was 1.9 µM and the TGI was 6.09 µM.

For `Cn1cc(C2=C(c3ccc(OC[C@@H](O)CO)cc3)C(=O)NC2=O)c2ccccc21`, the GI50 is more than 25 µM and the TGI was more than 25 µM.

With `CN1CCN(Cc2ccc(NC(=O)c3cncc(C#Cc4cnc(N)c5ccccc45)c3)cc2C(F)(F)F)CC1`, the GI50 is 0.4 µM and the TGI was 0.918 µM.

For the compound `O=C(Cc1ccc(/C=C/C(=O)c2ncc[nH]2)cc1)Nc1ccc(Cl)cc1`, the GI50 was 1.68 µM and the TGI is 6.2 µM.

Turning to `COc1ccccc1NC(=O)c1ccc(/C=C/C(=O)c2nccn2C)cc1`, the GI50 was 0.383 µM and the TGI is 0.848 µM.

As for `COC(=O)c1c2c(c(C)[n+]([O-])c1C)C(=O)C=CC2=O`, the GI50 is 0.946 µM and the TGI was determined as 2.71 µM.

With `OC(c1cccc(C(F)(F)F)c1)c1cnccc1NC1CCCCCC1` (centres undefined), the GI50 is 1.22 µM and the TGI came to 2.76 µM.

On to `CS(=O)c1nccc(-c2c(-c3ccc(F)c(OCCc4ccc(F)cc4)c3)nc3sccn23)n1` (centres undefined), for which the GI50 was 1.73 µM and the TGI came to 3.76 µM.

For the compound `COc1nc2c(cc1S(=O)(=O)c1ccccc1)CCc1c-2cnn1-c1ccccc1Cl`, the GI50 is 3.7 µM and the TGI is more than 100 µM.

On to `O=C1c2ccccc2C(=O)c2c1ccc1[nH]c(CCl)nc21`, for which the GI50 was 1.94 µM and the TGI was found to be 4.29 µM.

Turning to `ClCc1ccccc1CSc1ncnc2nc[nH]c12`, the GI50 is 48.9 µM and the TGI was more than 60 µM.

Regarding `CCOC(=O)c1cc(-c2ccc([N+](=O)[O-])cc2)n(-c2ccc(C(=O)O)c(O)c2)c1C`, the GI50 is 2.8 µM and the TGI was determined as 10.7 µM.

On to `Cc1c(Cl)cccc1Nc1ncccc1C(=O)O`, for which the GI50 was 84.4 µM and the TGI was more than 100 µM.

Turning to `NS(=O)(=O)c1ccc(-n2nc(-c3ccc(Br)cc3)ccc2=O)cc1`, the GI50 was more than 10 µM and the TGI was more than 10 µM.

Take `O=[n+]1c(CBr)c(CBr)n([O-])c2ccccc21`: the GI50 was 7.38 µM and the TGI was determined as 20.4 µM.

`CNC(=O)c1cc(Oc2ccc3c(c2)sc2nc(-c4ccc(N)cc4)cn23)ccn1`: the GI50 was 0.304 µM and the TGI was more than 100 µM.

Consider `C[C@@H]1Cc2c([nH]c3ccccc23)[C@@H](c2c(F)cc(/C=C/C(=O)O)cc2F)N1CC(C)(C)F`, for which the GI50 was 16.9 µM and the TGI came to 53.5 µM.

`O=C(NNc1nc2cc(F)c(F)cc2n2cccc12)c1cccnn1`: the GI50 is 0.408 µM and 0.204 µM; the TGI is 1.5 µM and 0.712 µM.

As for `CC1=C2[C@@H](CC1)[C@]1(C)O[C@@](C(C)C)(C[C@H]1OC(=O)[C@H](C)O)[C@H]2OC(=O)/C=C/c1ccccc1`, the GI50 is 12.6 µM and the TGI worked out at 28.3 µM.

Regarding `O=C(O)CCCc1ccc(N(CCCl)CCCl)cc1`, the GI50 was 23.1 µM and the TGI is 99.2 µM.

Regarding `CN=C1NC(=O)/C(=C/c2ccc3ncccc3c2)S1`, the GI50 is 3.26 µM and the TGI was 21.6 µM.

Regarding `N#Cc1c(O)c2c(c(O)c1C#N)C(=O)c1ccccc1C2=O`, the GI50 was 1.63 µM and the TGI was 6.17 µM.

Regarding `N#Cc1nc(-c2ccc(F)cc2)oc1S(=O)(=O)N1CCOCC1`, the GI50 was 1.6 µM and the TGI worked out at 3.27 µM.

For the compound `CCN1CCN(c2nc(NCCNc3ccnc4cc(Cl)ccc34)c3ccccc3n2)CC1`, the GI50 is 0.752 µM and the TGI came out at 2.34 µM.

As to `Fc1ccc(-c2nn(-c3ccccc3)cc2-c2nc3ccccc3o2)cc1`, the GI50 was 0.249 µM and the TGI was found to be 0.877 µM.

For `COc1cccc(-c2nn(-c3ccccc3)cc2-c2ccnc(NCCCNS(=O)(=O)c3cccc(F)c3)c2)c1`, the GI50 was 3.49 µM and the TGI came to 30.4 µM.

The values are drawn from PubChem BioAssay (NCI).
